A melting point compilation (Tetko et al.; mined from patent text by program, amines drawn as free bases though some values may be those of a salt)
Residues, ends and D or L forms follow the SMILES beside them. *: point of attachment. Cbz = O=C(OCc1ccccc1)*

Structure (SMILES)	melting point [°C]
CN(C)CCOc1ccc2nc(C#N)nc(NC3CCCC3)c2c1	158 to 160
O=C(CCl)Nc1ccc2[nH]ncc2c1	175 to 178
CCCCCCCCc1ccc(C(=O)CCCCCC(=O)OCC)cc1	38 to 40
CCCn1c(-c2ccccc2)nc2cc(C(=O)O)ccc21	223
O=C(NC1CC1c1ccc(-c2ncn(-c3ccc(OC(F)(F)F)cc3)n2)cc1)Oc1ccccc1 (configuration not stated)	171 to 173
OC(CNC(c1ccccc1)C(O)c1ccccc1)CNC(c1ccccc1)C(O)c1ccccc1 (configuration not stated)	155 to 175
Cc1nc(-c2ccccc2)nc(-c2cccc([N+](=O)[O-])c2)c1C(=O)NCN1CCN(C)CC1	129 to 131
CS(=O)CCNC(=O)c1cccc(-c2ccc3c(c2)C(Oc2ccc(Cl)cc2Cl)CC3)c1 (configuration not stated)	149 to 150
COc1cc2c3c(n(C)c(=O)c2cc1OC)-c1cc2c(cc1C3=CCCCCCBr)OCO2	182 to 185
CCCn1c(=S)sc2c(=N)n(NC(=O)c3ccco3)cnc21	206
CON=C(C(N)=NO)c1ccccc1COc1ccccc1C	110 to 112
O=C(NCCCCC1CCSS1)NN1CCCCC1 (configuration not stated)	67 to 69
CS(=O)(=O)c1ccc(-n2cc(C(F)F)nc2-c2ccc(Cl)cc2)cc1	179 to 180
C/C(=N\OC(=O)[C@@H]1CCCN(C(=O)OC(C)(C)C)C1)[C@H]1CC[C@H]2[C@@H]3CCC4=CC(=O)CC[C@]4(C)[C@H]3CC[C@]12C	79 to 81
COc1c(C)cc(-c2[nH]c3ccccc3c2C)cc1C	108 to 110
Nc1scc2c(C(=O)NC3CC3)nn(-c3ccc(Cl)cc3)c(=O)c12	188 to 190
Cc1oc(-c2ccccc2)nc1C(=O)COc1ccc(C#N)cc1	202 to 203
N#Cc1c(-c2ccc(Cl)cc2)c(-c2ccc(Cl)cc2)n[nH]c1=O	271 to 272
N#Cc1ccc(N2CCC(CO)CC2)c2ccccc12	135 to 136
c1ccc2c(Cn3cncn3)noc2c1	102 to 104
FC(F)(F)c1ccc(/C=C/c2nc(COc3ccc(-c4nc(Cn5ccnn5)co4)cc3)cs2)cc1	179 to 181
C=C(C)c1ccc(C2=NC(=O)C(C)(C(=C)C)N2)nc1 (configuration not stated)	123 to 125
CCCCCCCCC(O)Cc1ccc(OCc2ccccc2)c(OCc2ccccc2)c1 (configuration not stated)	55 to 57
Cc1nc2cc(Br)ccc2c(=O)n1C1CCC(=O)NC1=O (configuration not stated)	315 to 317

Structure (SMILES)	melting point [°C]
CNc1c(OC)cc(C(=O)OC)cc1OC	49 to 51
CCOC(=O)C1=CC(=O)C2(C(=O)c3ccccc3)OC2O1 (configuration not stated)	96 to 98
CCOC(=O)c1cn(CC)c2nc(Cl)ncc2c1=O	156
Cc1cc(C)nc(N(N=O)c2ccccc2)n1	117 to 121
Clc1ccc2c(NCCCN3CCCCC3)ccnc2c1	113 to 116
CC(C)n1nc(-c2c(NCc3ccccc3)nc(N)nc2-c2ccc(F)cc2)ccc1=O	191 to 192
CCNC(=O)C1CCCN1C(=O)C(C)NC(=O)C(C)NC(=O)OCc1ccccc1 (stereo not drawn) (Cbz-Ala-Ala-Pro-NHEt; configuration not given here)	139 to 140
CSC(SC)=C(C#N)C(=O)N1CCOCC1	55 to 57
CCOC(=O)c1cnnn1C[C@@H]1CN(c2ccc(N3CCC(=CC#N)CC3)c(F)c2)C(=O)O1	70 to 72
CC1(C)CC2(CC(C)(C)c3ccc(Oc4ccc([N+](=O)[O-])cc4)cc32)c2cc(Oc3ccc([N+](=O)[O-])cc3)ccc21	200 to 202
Cc1nc(N2CCN(Cc3ccc(C(F)(F)F)cc3)C2=O)sc1C(=O)NCc1ccccc1	127 to 128
COc1cccc(OCCN2CCC(N(C)c3nccc(N(C)C)n3)CC2)c1	105
CN1NC(C2CCCC2)=CC1C(=O)O (configuration not stated)	123 to 128
CC(C)C[C@@H](NC(=O)OC(C)(C)C)C(=O)N[C@H](C(=O)OCc1ccccc1)C(C)C	82 to 83
O=C1CC(c2ccc(Cl)cc2)Oc2ccccc21 (configuration not stated)	96 to 98
CCN1CC(=O)N(c2cc(Oc3ncccc3C(F)(F)F)c(Cl)cc2F)C1=O	162 to 163
CCCOc1ccccc1-c1nc2c(CCCCc3ccccc3)cccc2c(=O)[nH]1	82
N#Cc1cc(Br)c(O)c(Cc2cc(F)cc(Cc3cc(C#N)cc(Br)c3O)c2O)c1	240
COc1ccc(NCC(O)CO)cc1 (configuration not stated)	151 to 153
NC(=O)c1ccc(-c2nccc3[nH]c(=O)ccc23)cc1	> 300
COC1CCC(OC)C2=C1C=CC(O)(C(C)=O)C2 (single isomer, unassigned; (-))	130 to 132
O=C(O)CCCCCOc1ccc(CCc2ccncc2)cc1	180 to 182
CC(C)C[C@@H](C=O)NC(=O)[C@H](Cc1c[nH]cn1)NC(=O)[C@H](Cc1ccccc1)NC(=O)CCCc1ccccc1	98 to 103
CC(=NNc1ccc(C2=NNC(=O)CC2C)cc1)c1cc(O)ccc1O (configuration not stated)	279 to 284

Structure (SMILES)	melting point [°C]
O=C(c1cc(-c2ccccc2)ccn1)N(O)Cc1ccc(F)cc1	135 to 140
O=C(NCc1ccc(Cl)cc1)c1cnc2c(F)cc(C#CCCO)cc2c1O	253 to 255
Cc1c([N+](=O)[O-])c(=O)n(C)c(=O)n1C	152
CC(=O)Nc1cc(C(C)(C)CC(C)(C)C)ccc1O	176 to 177
CNC(=O)c1cccc(NC(=O)Cc2csc3ccccc23)c1	194
CCNC(=O)c1c([Si](C)(C)C)sc(C)c1C	90 to 94
CC(=NN=c1[nH]cccc1Cl)C(F)(F)F	64 to 64.5
O=S(=O)(c1ccccc1)C1CCCO1 (configuration not stated)	55.9 to 56.8
FC(F)(F)c1cccc(CSc2nnc(-c3ccc4nccn4c3)o2)c1	147 to 148
CCC(CC)c1ccc(Cl)c2nc3n(c12)CCCCN3c1ccc(OC(F)(F)F)cc1Br	114 to 117
COc1ccc2cc([C@H](C)C(=O)NN)ccc2c1	106 to 108
COC1c2ccccc2CSc2ccc(Br)cc21 (configuration not stated)	68 to 71
CN(C)CCN1CCC(Nc2nc3ccccc3n2Cc2ccc(F)cc2)CC1	166
Cc1ccccc1N1CCc2nnc3c(C)cccc3c21	135 to 137
O=C1CCC(c2ccc(F)cc2)CC1	104 to 106
CC1(C)OC(=O)Nc2ccc(-c3cccc(C(=O)c4ccccc4)c3)cc21	156 to 157
CSCC(C)(C)NC(=O)c1c(I)cccc1C(=O)Nc1ccc(-c2nnnn2C2CC2)cc1C	131 to 132
CC(C)N(C(=O)n1oc(=O)n(C)c1=O)c1ccc(F)cc1	135 to 136
O=C(Oc1cc(F)ccc1Br)c1cc2ccccc2oc1=O	173 to 175
Cc1c(C)c2c(c(C)c1N)CC(C)(CN1CC=C(c3c[nH]c4ccccc34)CC1)O2 (configuration not stated)	169 to 173
CCc1cc(Oc2ncc(C(F)(F)F)cc2Cl)nn1C(=O)NC	85 to 87
CCCCCCCCCCCCCCCCSCC(CNS(=O)(=O)CCCI)n1nnc(C)n1 (configuration not stated)	50 to 51
CCCCC1(C#N)C2CC3CC(C2)CC1C3 (configuration not stated)	48 to 50
CC(C)CCNC(=O)c1ccccc1-c1ccccc1CNC(=O)OCc1ccccc1	112
